Reference: PubChem BioAssay AID330 (DTP/NCI, 2004)
Where “and” joins values, the source holds several entries; their conditions need not be identical. Identical values can stand only once. Toxic doses and inconclusive results are not listed.

System: P388 leukemia ip, CD2F1 mice, survival T/C
Assay: NCI In Vivo Anticancer Drug Screen. Data for tumor model P388 Leukemia (intraperitoneal) in CD2F1 (CDF1) mice
Conditions: endpoint: median survival time, higher = longer survival
Outline: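 Mice carrying the transplanted tumor received test compound or vehicle. Survival was recorded in each group, and the value is the treated-group measurement divided by that of the vehicle-treated control group.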

[1] = dose: 50.0 mg/kg/injection, schedule: Q01DX005 (ip), vehicle: Klucel (hydroxypropylcellulose) (HPC)
[2] = dose: 100.0 mg/kg/injection, schedule: Q01DX005 (ip), vehicle: Klucel (hydroxypropylcellulose) (HPC)
[3] = dose: 50.0 mg/kg/injection, schedule: Q01DX009 (ip), vehicle: Klucel (hydroxypropylcellulose) (HPC)
[4] = dose: 100.0 mg/kg/injection, schedule: Q01DX009 (ip), vehicle: Klucel (hydroxypropylcellulose) (HPC)
[5] = dose: 200.0 mg/kg/injection, schedule: Q01DX009 (ip), vehicle: Klucel (hydroxypropylcellulose) (HPC)

COC(=O)/C=C1\C=CC=CN1C
T/C (dose: 50.0 mg/kg/injection, schedule: Q01DX009 (ip), vehicle: saline with Tween-80): 105 % of control
T/C (dose: 100.0 mg/kg/injection, schedule: Q01DX009 (ip), vehicle: saline with Tween-80): 106 % of control
T/C (dose: 200.0 mg/kg/injection, schedule: Q01DX009 (ip), vehicle: saline with Tween-80): 106 % of control

COc1ccc(C2C3CCCC(C3O)C(c3ccc(OC)cc3)N2C)cc1 (stereo not given)
T/C (dose: 100.0 mg/kg/injection, schedule: Q04DX003 (ip), vehicle: suspension in saline): 103 % of control
T/C (dose: 200.0 mg/kg/injection, schedule: Q04DX003 (ip), vehicle: suspension in saline): 104 % of control
T/C (dose: 400.0 mg/kg/injection, schedule: Q04DX003 (ip), vehicle: suspension in saline): 100 % of control

COc1ccccc1N=NNc1ccc(S(=O)(=O)NC(C)=O)cc1
T/C [1]: 107 % of control
T/C [2]: 114 % of control

O=C(CSc1nc2ccccc2s1)NCCO
T/C (dose: 50.0 mg/kg/injection, schedule: Q01DX005 (ip), vehicle: saline with Tween-80): 97 % of control
T/C (dose: 100.0 mg/kg/injection, schedule: Q01DX005 (ip), vehicle: saline with Tween-80): 99 % of control
T/C (dose: 200.0 mg/kg/injection, schedule: Q01DX005 (ip), vehicle: saline with Tween-80): 97 % of control

CCOC(=O)N1CCC23C=C(OC)C(=O)C=C2C1CC1=C3C(=O)C(OC)=CC1=O (stereo not given)
T/C (dose: 100.0 mg/kg/injection, schedule: Q01DX001 (ip), vehicle: saline): 101 % of control
T/C (dose: 200.0 mg/kg/injection, schedule: Q01DX001 (ip), vehicle: saline): 97 % of control
T/C (dose: 400.0 mg/kg/injection, schedule: Q01DX001 (ip), vehicle: saline): 105 % of control

C1=CCONC1
T/C (dose: 50.0 mg/kg/injection, schedule: Q04DX003 (ip), vehicle: saline): 93 % of control
T/C (dose: 100.0 mg/kg/injection, schedule: Q04DX003 (ip), vehicle: saline): 104 % of control
T/C (dose: 200.0 mg/kg/injection, schedule: Q04DX003 (ip), vehicle: saline): 92 % of control

Cc1nc2ccc(NC(=O)NC(=O)c3c(F)cccc3F)cc2s1
T/C (dose: 50.0 mg/kg/injection, schedule: Q04DX002 (ip), vehicle: saline with Tween-80): 92 % of control
T/C (dose: 100.0 mg/kg/injection, schedule: Q04DX002 (ip), vehicle: saline with Tween-80): 92 % of control
T/C (dose: 200.0 mg/kg/injection, schedule: Q04DX002 (ip), vehicle: saline with Tween-80): 89 % of control

CC(C)n1cc(C(C)(C)C)nc1SSc1nc(C(C)(C)C)cn1C(C)C
T/C [1]: 100 % of control
T/C [2]: 96 % of control

Cc1cc(C)c2ccc(NN=O)nc2n1
T/C (dose: 3.12 mg/kg/injection, schedule: Q01DX009 (ip), vehicle: water): 118 % of control
T/C (dose: 12.5 mg/kg/injection, schedule: Q01DX009 (ip), vehicle: water): 163 % of control
T/C (dose: 25.0 mg/kg/injection, schedule: Q01DX009 (ip), vehicle: water): 167 % of control and 169 % of control

Cc1ccc(S(=O)(=O)C2(NC(=O)c3ccc(Cl)cc3)CC2)cc1
T/C (dose: 30.0 mg/kg/injection, schedule: Q01DX005 (ip), vehicle: Klucel (hydroxypropylcellulose) (HPC)): 92 % of control and 94 % of control
T/C (dose: 60.0 mg/kg/injection, schedule: Q01DX005 (ip), vehicle: Klucel (hydroxypropylcellulose) (HPC)): 93 % of control
T/C (dose: 120.0 mg/kg/injection, schedule: Q01DX005 (ip), vehicle: Klucel (hydroxypropylcellulose) (HPC)): 86 % of control and 91 % of control and 92 % of control

Cc1cnn(C(C(=O)c2ccccc2)c2ccccc2)c1-c1ccccc1 (stereo not given)
T/C [3]: 105 % of control
T/C [4]: 105 % of control
T/C [5]: 98 % of control

OCC(Br)(Br)Br
T/C (dose: 100.0 mg/kg/injection, schedule: Q01DX001 (ip), vehicle: saline with Tween-80): 100 % of control
T/C (dose: 200.0 mg/kg/injection, schedule: Q01DX001 (ip), vehicle: saline with Tween-80): 98 % of control
T/C (dose: 400.0 mg/kg/injection, schedule: Q01DX001 (ip), vehicle: saline with Tween-80): 100 % of control

C1CN(/N=N/c2nn[nH]n2)CCO1
T/C [3]: 117 % of control
T/C [4]: 117 % of control
T/C [5]: 106 % of control

COC(=O)/C=N/Nc1ccc(C)cc1
T/C (dose: 25.0 mg/kg/injection, schedule: Q01DX009 (ip), vehicle: other): 89 % of control
T/C (dose: 50.0 mg/kg/injection, schedule: Q01DX009 (ip), vehicle: other): 86 % of control
T/C (dose: 100.0 mg/kg/injection, schedule: Q01DX009 (ip), vehicle: other): 96 % of control
T/C (dose: 200.0 mg/kg/injection, schedule: Q01DX009 (ip), vehicle: other): 103 % of control
T/C (dose: 400.0 mg/kg/injection, schedule: Q01DX009 (ip), vehicle: other): 108 % of control

CN(C)CCOc1ccc2c(c1)CCC2=O
T/C (dose: 50.0 mg/kg/injection, schedule: Q01DX009 (ip), vehicle: saline): 108 % of control
T/C (dose: 100.0 mg/kg/injection, schedule: Q01DX009 (ip), vehicle: saline): 118 % of control
T/C (dose: 200.0 mg/kg/injection, schedule: Q01DX009 (ip), vehicle: saline): 108 % of control
